Data taken from US7252957B2, “Identification of etiology of autism” (Immunosciences Lab., Inc., priority 2004, dated 2007).

Key:
[1] = test system: CD26; test: ELISA: binding of gliadin, casein peptides, SK and ethyl mercury to CD26 (inhibition of anti-CD26 binding); details: for % Binding of Gliadin, Casein, Streptokinase, or Mercury to CD26 and CD69: CD26 coated wells, % inhibition in binding of anti-CD26 to CD26; for ELISA O.D. at 492 nm: microwell coated with CD26 + competing antigen, peroxidase labeled rabbit anti-CD26
Procedure: (§1) Plates were incubated for one hour at 37° C. and washed five times for removal of unbound competing antigens. […] After proper incubation and washing, binding of these peptides and proteins to CD26 and CD69 was measured by addition of peroxidase substrate and measurement of color development at 492 nm.

[2] = target: T1, CD69 (Homo sapiens, UniProt Q07108); test: ELISA: binding of gliadin, casein peptides, SK and ethyl mercury to CD69 (inhibition of anti-CD69 binding); details: for % Binding of Gliadin, Casein, Streptokinase, or Mercury to CD26 and CD69: CD69 coated wells, % inhibition of anti-CD69 binding to CD69; for ELISA O.D. at 492 nm: microwell coated with CD69 + competing antigen, peroxidase labeled rabbit anti-CD69
T1 construct: purchased Bio-Synthesis Inc. (Lewisville, Tex.); host or cells: chemical synthesis
Procedure: as §1

[3] = target: CD69 antibody binding epitope … (human); test: competition ELISA, CD69-coated wells, read with peroxidase labeled rabbit anti-CD69

Row | Molecule | % Binding of Gliadin, Casein, Streptokinase, or Mercury to CD26 and CD69 [1] [%] | ELISA O.D. at 492 nm [1] [O.D.] | % Binding of Gliadin, Casein, Streptokinase, or Mercury to CD26 and CD69 [2] [%] | ELISA O.D. at 492 nm [2] [O.D.] | % Binding of Gliadin, Casein, Streptokinase, or Mercury to CD26 and CD69 (% inhibition of anti-CD69 binding) [3] [%]
1 | Casein | 44 | 1.34 | 28 | 1.45 | 
2 | streptokinase [SK] | 77 | 0.72 | 86 | 0.48 | 
3 | Streptokinase (SK), P00779 27-440 (protein) IAGPEWLLDRPSVNNSQLVVSVAGTVEGTNQDISLKFFEIDLTSRPAHGGKTEQGLSPKSKPFATDSGAMSHKLEKADLLKAIQEQLIANVHSNDDYFEVIDFASDATITDRNGKVYFADKDGSVTLPTQPVQEFLLSGHVRVRPYKEKPIQNQAKSVDVEYTVQFTPLNPDDDFRPGLKDTKLLKTLAIGDTITSQELLAQAQSILNKNHPGYTIYERDSSIVTHDNDIFRTILPMDQEFTYRVKNREQAYRINKKSGLNEEINNTDLISEKYYVLKKGEKPYDPFDRSHLKLFTIKYVDVDTNELLKSEQLLTASERNLDFRDLYDPRDKAKLLYNNLDAFGIMDYTLTGKVEDNHDDTNRIITVYMGKRPEGENASYHLAYDKDRYTEEEREVYSYLRYTGTPIPDNPNDK |  |  |  |  | 86
